From patent US11161852B1 (Halia Therapeutics, Inc., priority 2020, dated 2021) come the findings set out here.

The target in one assay is full-length recombinant human NEK7 (Homo sapiens (Human), UniProt Q8TDX7). As to the kind of experiment: NEK7 Enzymatic Assay ([33P]-ATP, casein substrate). It counts as biochemical.
Chain of full-length recombinant human NEK7 (Q8TDX7 whole entry): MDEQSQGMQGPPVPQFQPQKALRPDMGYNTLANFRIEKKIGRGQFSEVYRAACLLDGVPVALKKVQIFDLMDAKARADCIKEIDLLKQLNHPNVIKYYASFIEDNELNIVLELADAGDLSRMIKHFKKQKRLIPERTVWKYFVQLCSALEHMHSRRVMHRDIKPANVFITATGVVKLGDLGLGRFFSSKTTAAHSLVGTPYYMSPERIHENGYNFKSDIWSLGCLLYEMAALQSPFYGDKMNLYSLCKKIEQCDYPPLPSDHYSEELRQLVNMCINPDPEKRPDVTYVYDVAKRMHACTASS
Conditions: not given
Here is the method: Casein substrate (from bovine milk, hydrolyzed and partially dephosphorylated mixture of α, β and a caseins, obtained from Sigma Aldrich, catalogue #C4765, diluted in distilled water to a final concentration of 1 mg/mL) and full-length recombinant human NEK7 (expressed by baculovirus in Sf9 insect cells using a N-terminal GST tag, obtained from SignalChem, catalogue #N09-10G, 0.1 μg/μL) were mixed in assay buffer (20 mM Hepes pH 7.5, 10 mM MgCl2, 1 mM EGTA, 0.02% Brij35, 0.02 mg/ml BSA, 0.1 mM Na3VO4, 2 mM DTT, 1% DMSO). Compounds of interest (serial 3-fold dilution in DMSO from 10 μM to 0.5 nM) or vehicle (1% DMSO) were dispensed into the kinase reaction mixture by Acoustic technology (Echo550; nanoliter range). After incubation at room temperature for 20 minutes, the kinase reaction was initiated by addition of [^33P]-ATP (specific activity […]) and the mixture was incubated at room temperature for 2 hours. The reaction was then stopped by spotting the reaction mixture on strips of phosphocellulose P81 paper. Following washing, the radioactivity of the P81 paper was measured and kinase activity data were expressed as the percent remaining kinase activity in test samples compared to vehicle reactions. IC50 values and curve fits were obtained using Prism (GraphPad Software).
Usually IC50 stands for the concentration at which inhibition is half-maximal. With `Nc1ncnc2c1c(-c1ccc(NC(=O)Nc3cc(C4(C(F)(F)F)CC4)no3)c(F)c1)cn2C1CC1` [Example 5, 1-(4-(4-amino-7-cyclopropyl-7H-pyrrolo[2,3-d]pyrimidin-5-yl)-2-fluorophenyl)-3-(3-(1-(trifluoromethyl)cyclopropyl)isoxazol-5-yl)urea], the IC50 was under 0.15 µM.

Take `Nc1ncnc2c1c(-c1ccc(NC(=O)Nc3cc(C4(C(F)(F)F)CC4)no3)nc1)cn2C1CC1` [Example 37, 1-(5-(4-amino-7-cyclopropyl-7H-pyrrolo[2,3-d]pyrimidin-5-yl)pyridin-2-yl)-3-(3-(1-(trifluoromethyl)cyclopropyl)isoxazol-5-yl)urea]: the concentration for half-maximal inhibition (IC50) is under 0.15 µM.

With `CC1(c2cc(NC(=O)Nc3ccc(-c4cn(C5CC5)c5ncnc(N)c45)cc3F)on2)CC1` [Example 17, 1-(4-(4-amino-7-cyclopropyl-7H-pyrrolo[2,3-d]pyrimidin-5-yl)-2-fluorophenyl)-3-(3-(1-methylcyclopropyl)isoxazol-5-yl)urea], the IC50 was under 0.15 µM.

For the molecule `CC(C)(F)c1cc(NC(=O)Nc2ccc(-c3cn(C4CC4)c4ncnc(N)c34)cc2F)on1` [Example 9, 1-(4-(4-amino-7-cyclopropyl-7H-pyrrolo[2,3-d]pyrimidin-5-yl)-2-fluorophenyl)-3-(3-(2-fluoropropan-2-yl)isoxazol-5-yl)urea], the IC50 was under 0.15 µM.

For the molecule `Cc1cc(NC(=O)Nc2ccc(-c3cn(C4CC4)c4ncnc(N)c34)cc2F)on1` [Example 7, 1-(4-(4-amino-7-cyclopropyl-7H-pyrrolo[2,3-d]pyrimidin-5-yl)-2-fluorophenyl)-3-(3-methylisoxazol-5-yl)urea], the IC50 is 0.501 to 1.5 µM.

Turning to `CC1(c2cc(NC(=O)Nc3ccc(-c4cn(C5CC5)c5ncnc(N)c45)cc3F)on2)COC1` [Example 27, 1-(4-(4-amino-7-cyclopropyl-7H-pyrrolo[2,3-d]pyrimidin-5-yl)-2-fluorophenyl)-3-(3-(3-methyloxetan-3-yl)isoxazol-5-yl)urea], the IC50 was under 0.15 µM.

In the case of `Nc1ncnc2c1c(-c1ccc(NC(=O)Nc3cc(C4CC4)on3)c(F)c1)cn2C1CC1` [Example 6], the IC50 was in the range of 0.301 to 0.5 µM.

Turning to `CCC(CC)c1cc(NC(=O)Nc2ccc(-c3cn(C4CC4)c4ncnc(N)c34)cc2F)on1` [Example 31, 1-(4-(4-amino-7-cyclopropyl-7H-pyrrolo[2,3-d]pyrimidin-5-yl)-2-fluorophenyl)-3-(3-(pentan-3-yl)isoxazol-5-yl)urea], the IC50 lay within 0.301 to 0.5 µM.

On to `CC(C)(C)c1cc(NC(=O)NC2CCC(c3cn(C4CC4)c4ncnc(N)c34)CC2)on1` (centres unmarked) [Example 16, 1-(4-(4-amino-7-cyclopropyl-7H-pyrrolo[2,3-d]pyrimidin-5-yl)cyclohexyl)-3-(3-(tert-butyl)isoxazol-5-yl)urea], for which the IC50 is over 1.5 µM.

Turning to `CC(C)(C)c1cc(NC(=O)Nc2ccc(-c3cn(C4CC4)c4ncnc(N)c34)cc2)on1` [Example 13, 1-(4-(4-amino-7-cyclopropyl-7H-pyrrolo[2,3-d]pyrimidin-5-yl)phenyl)-3-(3-(tert-butyl)isoxazol-5-yl)urea], the IC50 is 0.301 to 0.5 µM.

With `CN1CCC(n2cc(-c3ccc(NC(=O)Nc4cc(C5(C(F)(F)F)CC5)no4)c(F)c3)c3c(N)ncnc32)CC1` [Example 26, 1-(4-(4-amino-7-(1-methylpiperidin-4-yl)-7H-pyrrolo[2,3-d]pyrimidin-5-yl)-2-fluorophenyl)-3-(3-(1-(trifluoromethyl)cyclopropyl)isoxazol-5-yl)urea], the IC50 was in the range of 0.301 to 0.5 µM.

In the case of `Nc1ncnc2c1c(-c1ccc(NC(=O)Nc3cc(CO)no3)c(F)c1)cn2C1CC1` [Example 36, 1-(4-(4-amino-7-cyclopropyl-7H-pyrrolo[2,3-d]pyrimidin-5-yl)-2-fluorophenyl)-3-(3-(hydroxymethyl)isoxazol-5-yl)urea], the IC50 is 0.501 to 1.5 µM.

Take `COc1cc(-c2cn(C3CC3)c3ncnc(N)c23)ccc1NC(=O)Nc1cc(C2(C(F)(F)F)CC2)no1` [Example 55, 1-(4-(4-amino-7-cyclopropyl-7H-pyrrolo[2,3-d]pyrimidin-5-yl)-2-methoxyphenyl)-3-(3-(1-(trifluoromethyl)cyclopropyl)isoxazol-5-yl)urea]: the IC50 is over 1.5 µM.

As for `Nc1ncnc2c1c(-c1ccc(NC(=O)Nc3cc(C4(C(F)(F)F)CC4)no3)c(CO)c1)cn2C1CC1` [Example 49, 1-(4-(4-amino-7-cyclopropyl-7H-pyrrolo[2,3-d]pyrimidin-5-yl)-2-(hydroxymethyl)phenyl)-3-(3-(1-(trifluoromethyl)cyclopropyl)isoxazol-5-yl)urea], the 50% inhibitory concentration (IC50) was over 1.5 µM.

For `Nc1ncnc2c1c(-c1ccc(NC(=O)Nc3cc(C4(C(F)(F)F)CCC4)no3)c(F)c1)cn2C1CC1` [Example 45, 1-(4-(4-amino-7-cyclopropyl-7H-pyrrolo[2,3-d]pyrimidin-5-yl)-2-fluorophenyl)-3-(3-(1-(trifluoromethyl)cyclobutyl)isoxazol-5-yl)urea], the IC50 was in the range of 0.151 to 0.3 µM.

Consider `Nc1ncnc2c1c(-c1cnc(NC(=O)Nc3cc(C4(C(F)(F)F)CC4)no3)c(F)c1)cn2C1CC1` [Example 44], for which the IC50 is 0.501 to 1.5 µM.

As for `Nc1ncnc2c1c(-c1cc(F)c(NC(=O)Nc3cc(C4(C(F)(F)F)CC4)no3)c(F)c1)cn2C1CC1` [Example 41, 1-(4-(4-amino-7-cyclopropyl-7H-pyrrolo[2,3-d]pyrimidin-5-yl)-2,6-difluorophenyl)-3-(3-(1-(trifluoromethyl)cyclopropyl)isoxazol-5-yl)urea], the IC50 is over 1.5 µM.

Consider `Nc1ncnc2c1c(-c1c(F)cc(NC(=O)Nc3cc(C4(C(F)(F)F)CC4)no3)cc1F)cn2C1CC1` [Example 43, 1-(4-(4-amino-7-cyclopropyl-7H-pyrrolo[2,3-d]pyrimidin-5-yl)-3,5-difluorophenyl)-3-(3-(1-(trifluoromethyl)cyclopropyl)isoxazol-5-yl)urea], for which the IC50 was over 1.5 µM.

As for `Nc1ncnc2c1c(-c1ccc(NC(=O)Nc3cc(C4(C(F)(F)F)CC4)no3)cc1F)cn2C1CC1` [Example 11, 1-(4-(4-amino-7-cyclopropyl-7H-pyrrolo[2,3-d]pyrimidin-5-yl)-3-fluorophenyl)-3-(3-(1-(trifluoromethyl)cyclopropyl)isoxazol-5-yl)urea], the IC50 lay in the range of 0.301 to 0.5 µM.

For `Nc1ncnc2c1c(-c1cc(F)c(NC(=O)Nc3cc(C4(C(F)(F)F)CC4)no3)cc1F)cn2C1CC1` [Example 42, 1-(4-(4-amino-7-cyclopropyl-7H-pyrrolo[2,3-d]pyrimidin-5-yl)-2,5-difluorophenyl)-3-(3-(1-(trifluoromethyl)cyclopropyl)isoxazol-5-yl)urea], the concentration for half-maximal inhibition (IC50) fell in the range of 0.501 to 1.5 µM.

Turning to `CC(C)(C)c1nnc(NC(=O)Nc2ccc(-c3cn(C4CC4)c4ncnc(N)c34)cc2F)o1` [Example 23, 1-(4-(4-amino-7-cyclopropyl-7H-pyrrolo[2,3-d]pyrimidin-5-yl)-2-fluorophenyl)-3-(5-(tert-butyl)-1,3,4-oxadiazol-2-yl)urea], the IC50 is 0.301 to 0.5 µM.

For `CC(C)(C)c1cc(NC(=O)Nc2ccc(-c3cn(C4CC4)c4ncnc(N)c34)cc2F)no1` [Example 4, 1-(4-(4-amino-7-cyclopropyl-7H-pyrrolo[2,3-d]pyrimidin-5-yl)-2-fluorophenyl)-3-(5-(tert-butyl)isoxazol-3-yl)urea], the half-inhibitory concentration (IC50) is under 0.15 µM.

With `Nc1nccc2c1c(-c1ccc(NC(=O)Nc3cc(C4(C(F)(F)F)CC4)no3)c(F)c1)cn2C1CC1` [Example 62, 1-(4-(4-amino-1-cyclopropyl-1H-pyrrolo[3,2-c]pyridin-3-yl)-2-fluorophenyl)-3-(3-(1-(trifluoromethyl)cyclopropyl)isoxazol-5-yl)urea], the IC50 was over 1.5 µM.

For the molecule `CN1CCC(n2cc(-c3ccc(NC(=O)Nc4cc(C5(C(F)(F)F)CC5)no4)c(F)c3)c3c(N)ncnc32)C1` (centres unmarked) [Example 56, 1-(4-(4-amino-7-(1-methylpyrrolidin-3-yl)-7H-pyrrolo[2,3-d]pyrimidin-5-yl)-2-fluorophenyl)-3-(3-(1-(trifluoromethyl)cyclopropyl)isoxazol-5-yl)urea], the IC50 lay within 0.301 to 0.5 µM.

In the case of `Nc1ncnc2c1c(-c1cnc(NC(=O)Nc3cc(C4(C(F)(F)F)CC4)no3)nc1)cn2C1CC1` [Example 48, 1-(5-(4-amino-7-cyclopropyl-7H-pyrrolo[2,3-d]pyrimidin-5-yl)pyrimidin-2-yl)-3-(3-(1-(trifluoromethyl)cyclopropyl)isoxazol-5-yl)urea], the IC50 was over 1.5 µM.

In the next assay the test system is IL-1β release from THP-1 cells. As to the kind of experiment: IL-1β Release Assay (PMA-differentiated THP-1 cells, LPS + nigericin). It counts as cell-based. The note with it: Homo sapiens, 250 ng/mL LPS, 20 μM nigericin. As to the method: Approximately 1.5 million THP-1 cells were plated in each well of a 6-well TC plate and incubated with 40 nM PMA in RPMI (10% FBS, 1% Penstrep) for 24 hours. The media was then removed and cells were rested in RPMI (10% FBS, 1% Penstrep) for 24 hours after which time the media was removed and cells were pre-treated for 2 hours with various concentrations of compounds of interest (typically serial 3-fold dilution in RPMI+5% FBS, concentrations ranging from 1 μM to 0.5 nM) in RPMI (5% FBS). The media was again removed and cells were incubated with 250 ng/mL LPS and compounds of interest (concentrations as above) in RMPI (5% FBS) for 2 hours. The media was removed for a last time and cells were incubated with 20 μM nigericin and compounds of interest (concentrations as above) in Opti-MEM for 30 minutes. Cell media was then collected and the amount of cleaved IL-1β was determined using a JESS instrument (Protein Simple) and standard protocols. Cleaved Il-1β antibody was obtained from Cell Signaling (catalogue #83186S) and was used at 1:20 dilution in antibody diluent 2. Protein Simple 1× anti-Rabbit HRP secondary antibody was used along with Protein Simple luminol and peroxide for chemiluminescent detection. Primary antibody incubation time was increased from 30 minutes to 60 minutes.
Take `Nc1ncnc2c1c(-c1ccc(NC(=O)Nc3cc(C4(C(F)(F)F)CC4)no3)c(F)c1)cn2C1CC1` [Example 5, 1-(4-(4-amino-7-cyclopropyl-7H-pyrrolo[2,3-d]pyrimidin-5-yl)-2-fluorophenyl)-3-(3-(1-(trifluoromethyl)cyclopropyl)isoxazol-5-yl)urea]: the IC50 is under 0.15 µM.

`Nc1ncnc2c1c(-c1ccc(NC(=O)Nc3cc(C4(C(F)(F)F)CC4)no3)nc1)cn2C1CC1` [Example 37, 1-(5-(4-amino-7-cyclopropyl-7H-pyrrolo[2,3-d]pyrimidin-5-yl)pyridin-2-yl)-3-(3-(1-(trifluoromethyl)cyclopropyl)isoxazol-5-yl)urea]: the IC50 is under 0.15 µM.

Turning to `CC1(c2cc(NC(=O)Nc3ccc(-c4cn(C5CC5)c5ncnc(N)c45)cc3F)on2)CC1` [Example 17, 1-(4-(4-amino-7-cyclopropyl-7H-pyrrolo[2,3-d]pyrimidin-5-yl)-2-fluorophenyl)-3-(3-(1-methylcyclopropyl)isoxazol-5-yl)urea], the 50% inhibitory concentration (IC50) was under 0.15 µM.

In the case of `CC(C)(F)c1cc(NC(=O)Nc2ccc(-c3cn(C4CC4)c4ncnc(N)c34)cc2F)on1` [Example 9, 1-(4-(4-amino-7-cyclopropyl-7H-pyrrolo[2,3-d]pyrimidin-5-yl)-2-fluorophenyl)-3-(3-(2-fluoropropan-2-yl)isoxazol-5-yl)urea], the IC50 fell in the range of 0.151 to 0.3 µM.
